Experimental data taken from patent US5476944A, “Derivatives of cyclic phenolic thioethers” (G. D. Searle & Co., priority 1994, dated 1995).

Molecular target: T1, COX-II (Homo sapiens, UniProt P35354)
T1 construct: made in house; host or cells: SF9 insect cells, recombinant baculovirus (pVL1393); coding fragment from Cayman Chemical
T1 sequence (P35354 18-604): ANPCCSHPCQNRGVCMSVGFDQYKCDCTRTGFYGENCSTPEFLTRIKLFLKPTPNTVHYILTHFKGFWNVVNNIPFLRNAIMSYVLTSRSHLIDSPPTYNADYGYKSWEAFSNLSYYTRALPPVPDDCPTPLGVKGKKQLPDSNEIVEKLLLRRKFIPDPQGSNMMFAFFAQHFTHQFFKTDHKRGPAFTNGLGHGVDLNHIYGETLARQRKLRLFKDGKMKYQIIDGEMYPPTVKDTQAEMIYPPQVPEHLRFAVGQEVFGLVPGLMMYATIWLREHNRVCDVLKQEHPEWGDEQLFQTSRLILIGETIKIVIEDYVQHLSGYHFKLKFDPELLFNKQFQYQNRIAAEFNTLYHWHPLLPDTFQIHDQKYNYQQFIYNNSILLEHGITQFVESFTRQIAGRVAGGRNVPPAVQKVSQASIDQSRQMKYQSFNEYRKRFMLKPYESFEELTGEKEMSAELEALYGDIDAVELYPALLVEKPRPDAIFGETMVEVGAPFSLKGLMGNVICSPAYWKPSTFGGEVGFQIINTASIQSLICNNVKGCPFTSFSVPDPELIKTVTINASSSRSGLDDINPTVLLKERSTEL
Test: Human Enzyme Assay, recombinant COX-II (PGE2 ELISA)
Assay type: biochemical
Description: The compounds of the invention are evaluated with respect to COX-I and COX-II activity in vitro using an enzyme based assay according to the following assay procedure.
(a) Preparation of Recombinant COX Baculoviruses
A 2.0 kb fragment containing the coding region for either human or murine COX-I (Caymen Chemical, Ann Arbor, Mich.), or human or murine COX-II (Caymen Chemical, Ann Arbor, Mich.), was cloned into a BamH1 site of the baculovirus transfer vector pVL1393 (Invitrogen, Palo Alto, Calif.) to generate a baculovirus transfer vector. Recombinant baculoviruses were isolated by transfecting 4 μg of baculovirus transfer vector DNA into SF9 cells (2×10e8) (Invitrogen, Palo Alto, Calif.) along with 200 ng of linearized bacium by the phosphate method. See M. D. Summers et al., "A Manual of Methods for Baculovirus Vectors and Insect Cell Culture Procedure," TEXAS AGRICULTURE EXPERIMENTAL STATION BULLETIN, No. 1555 (1987), which is incorporated herein by reference. Recombinant viruses were purified by three rounds of plaque purification, and high titer (10e7-10e8 pfu/ml) stocks of virus were prepared. For large scale production, SF9 insect cells (Invitrogen, Palo Alto, Calif.) were infected in 10 liter fermentors (0.5×10^6 /ml) with the recombinant baculovirus stock, such that the multiplicity of infection was 0.1. After 72 hours, the cells were centrifuged and the cell pellet was homogenized in Tris/Sucrose (50 mM: 25%, pH 8.0) containing 1% CHAPS. The homogenate was centrifuged at 10,000×G for 30 minutes, and the resultant supernatant was stored at -80° C. before being assayed for COX activity.
b. Assay for COX-I and COX-II activity:
COX activity was assayed as PGE2 formed/μg protein/time using an ELISA (Caymen Chemical, Ann Arbor, Mich.) to detect the prostaglandin E2 released. CHAPS-solubilized insect cell membranes containing the appropriate COX enzyme were incubated in a potassium phosphate buffer (50 mM, pH 8.0) containing phenol (0.5 mM), and heme (1 μM) with the addition of arachidonic acid (10 μM). Compounds of the present invention were pre-incubated with the enzyme for 10-20 minutes prior to the addition of the COX-I and COX-II enzyme substrate arachidonic acid (10 μM). Any reaction between the arachidonic acid and the enzyme was stopped after ten minutes at 37° C./room temperature by transferring 40 μl of reaction mix into […] ELISA buffer and 25 μM indomethacin. The PGE2 formed was measured by standard ELISA technology (Cayman Chemical, Ann Arbor, Mich.).
The results for this assay, as well as for the next assay (COX-II Cell Fibroblast Assay) are expressed in terms of COX-I or II activity as an IC50 value (50% inhibitory concentration), as defined as the amount of prostaglandin E2 (PGE2) formed per protein per time in response to the enzyme substrate arachidonic acid.

With `CC(C)(C)c1cc(S[C@H]2CCCC[C@H]2OCC(=O)O)cc(C(C)(C)C)c1` (racemic) [Example 72, (±)cis-2-[[2-[[3,5-bis(1,1-dimethylethyl)phenyl]thio]cyclohexyl]oxy]acetic acid] the IC50 was 4.11 µM.
